# Earlier results as cited in US6949518B1, “Methods for treating macular degeneration with topiramate” (priority 2003, dated 2005).
# Experiments:
# [1] = test system: patients with type 2 diabetes
# [2] = elimination predominantly unchanged via the renal route
smiles,measurement,setting,value
"CC1(C)O[C@@H]2[C@@H](CO[C@@]3(COS(N)(=O)=O)OC(C)(C)O[C@@H]23)O1 [topiramate, 2,3:4,5-Di-O-isopropylidene-β-D-fructopyranose sulfamate]",carbonic anhydrase inhibition,carbonic anhydrase,weak carbonic anhydrase inhibitor
same,"solubility in acetone, chloroform, dimethylsulfoxide, and ethanol",organic solvents,freely soluble
same,pH of saturated solution,saturated solution,6.3
same,dendrite length,[1]; by the end of trial,increased
same,peroneal nerve amplitude,[1]; by the end of trial,increased
same,total neuropathy scores,"[1]; end of trial, decreased from baseline 14, 11 patients, 25 mg/day titrated over 42 days to maximum tolerated dose or 100 mg/day, then 84 more days",11.8
same,plasma t½,[2],20 to 30 h
